Test results: patent US6046218A, “Pyridine derivative and medicament containing the same as an effective ingredient” (SS Pharmaceutical Co., Ltd., priority 1996, dated 2000)
Structures can show the parent of a compound that is named as a salt.

Columns and labels:
IgE production = assay: Test 4: inhibition of IgE production by spleen cells of orally treated sensitized mice; assay type: in vivo, Balb/c mouse; details: Mus musculus, po, 100 mg/kg orally once a day, Day 1 to Day 10, DNP-BSA 5 μg/ml, 24 hours, read-out: Inhibition rate of IgE production
Protocol: (§1) Test 4: Test on the inhibition of IgE production
(§2) To a Balb/c mouse, the DNP-labeled ascaris antigen (5 μg) and Alum (1 mg) were intraperitoneally administered on Day 1 and Day 6 to sensitize the mouse with the antibody. From Day 1 to Day 10, a medicament was orally administered at a dose of 100 mg/kg once a day. On Day 11, the mouse was subjected to splenectomy and the spleen so obtained was untangled into its cells. To 5×10^7 cells/ml of the spleen cells so obtained, DNP-BSA (5 μg/ml) was added, followed by incubation at 37° C. for 24 hours. After incubation, 100 μl of the supernatant were collected and subjected to the measurement an IgE measuring kit (Yamasa Co., Ltd.). In order to determine IgG1, IgG2a and IgM, the absorbance of the incubated supernatant was measured by the EIA method and provided for comparison. The inhibition rate of IgE production was calculated according to the below-described formula. Inhibition rates of the IgG1, IgG2a and IgM production were similarly calculated, respectively. [formula]

IgM production = assay: Test 4 (comparison): inhibition of IgM production; assay type: in vivo, Balb/c mouse; details: 100 mg/kg orally once a day; for inhibition at 100 mg/kg: Mus musculus, po, Day 1 to Day 10, spleen cells, DNP-BSA 5 μg/ml, 24 hours, read-out: Inhibition rate of IgM production
Protocol: as §1, §2

IL-4 production [1] = assay: Test 1: inhibition of IL-4 production in human T-cell strain ATL-16T(-) stimulated with PMA (R&D Systems EIA); assay type: cell-based; details: ATL-16T(-) 1×10^6 cells/0.5 ml/well, 20 nM PMA, 48 hours, read-out: Inhibition rate of IL-4 production; for inhibition at 10 µM: 10^-5 M; for inhibition at 1 µM: 10^-6 M; for inhibition at 0.1 µM: 10^-7 M; for inhibition at 0.01 µM: 10^-8 M
Protocol: Test 1: Test on the inhibition of IL-4 production
(§3) Into individual wells of a 48-well microplate, the human T-cell strain ATL-16T(-) was poured at a concentration of 1×10^6 cells/0.5 ml/well (n=3), followed by the addition of a stimulator (20 nM of PMA) and a medicament at the same time. The resulting mixture was incubated in 5% CO2 at 37° C. for 48 hours. After incubation, 100 μl of the supernatant were collected and subjected to measurement by a human IL-4 EIA kit (R&D SYSTEMS, INC.). The inhibition rate was calculated according to the following formula. [formula]

IL-5 production = assay: Test 3: inhibition of IL-5 production in human PBMC stimulated with ConA; assay type: cell-based; details: 10^-6 M, 10 μg/ml ConA, 48 hours, read-out: Inhibition rate of IL-5 production
Procedure, shortened: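 Human PBMC from a normal volunteer, 1×10^6 cells/ml in AIM-V, stimulated with 10 μg/ml ConA alongside compound and incubated 48 h at 37 °C, 5% CO2. Supernatant IL-5 quantified by EIA; inhibition rate calculated from a formula.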

IgG2a production = assay: Test 4 (comparison): inhibition of IgG2a production; assay type: in vivo, Balb/c mouse; details: 100 mg/kg orally once a day; for inhibition at 100 mg/kg: Mus musculus, po, Day 1 to Day 10, spleen cells, DNP-BSA 5 μg/ml, 24 hours, read-out: Inhibition rate of IgG2a production
Protocol: as §1, §2

IgG1 production = assay: Test 4 (comparison): inhibition of IgG1 production; assay type: in vivo, Balb/c mouse; details: 100 mg/kg orally once a day; for inhibition at 100 mg/kg: Mus musculus, po, Day 1 to Day 10, spleen cells, DNP-BSA 5 μg/ml, 24 hours, read-out: Inhibition rate of IgG1 production
Protocol: as §1, §2

IL-4 production [2] = assay: Test 2: inhibition of IL-4 production in human T-cell strain ATL-16T(-) stimulated with PMA (Bio Source EIA); assay type: cell-based; details: ATL-16T(-) 5×10^5 cells/0.5 ml/well, 20 nM PMA, 48 hours, read-out: Inhibition rate of IL-4 production; for inhibition at 10 µM: 10^-5 M; for inhibition at 1 µM: 10^-6 M; for inhibition at 0.1 µM: 10^-7 M; for inhibition at 0.01 µM: 10^-8 M
Protocol: Test 2: Test on the inhibition of IL-4 production
as §3, with “5×10^5” for “1×10^6”, “50” for “100”, “(BIO SOURCE,” for “(R&D SYSTEMS,”

COc1cnc(/C=C/C(=O)c2ccccc2)cc1OC [Ex. 1, 4,5-dimethoxy-2-(3-oxo-3-phenyl-1-propenyl)pyridine]
inhibition at 100 mg/kg (IgE production): 42% | inhibition at 100 mg/kg (IgM production): -8% | inhibition at 10 µM (IL-4 production [1]): 97.5% | inhibition at 1 µM (IL-4 production [1]): 87.9% | inhibition at 0.1 µM (IL-4 production [1]): 80.3% | inhibition at 0.01 µM (IL-4 production [1]): 59.9% | inhibition at 1 µM (IL-5 production): 95.3% | inhibition at 100 mg/kg (IgG2a production): 4.6% | inhibition at 100 mg/kg (IgG1 production): 1.6%

CCCCCC(=O)/C=C/c1cc(OCCCCCC(=O)OC)c(OC)cn1 [Ex. 15, Methyl 6-[5-methoxy-2-(3-oxo-1-octenyl)-4-pyridyloxy]hexanoate]
inhibition at 100 mg/kg (IgE production): 23.5% | inhibition at 100 mg/kg (IgM production): -5.4% | inhibition at 10 µM (IL-4 production [1]): 76.8% | inhibition at 1 µM (IL-4 production [1]): 58.9% | inhibition at 0.1 µM (IL-4 production [1]): 55.9% | inhibition at 0.01 µM (IL-4 production [1]): 49.1% | inhibition at 1 µM (IL-5 production): 79.2% | inhibition at 100 mg/kg (IgG2a production): 4.6% | inhibition at 100 mg/kg (IgG1 production): 9.9%

COc1cnc(/C=C/C(=O)c2ccccc2)cc1O [Ex. 19, 4-hydroxy-5-methoxy-2-(3-oxo-3-phenyl-1-propenyl)-pyridine]
inhibition at 100 mg/kg (IgE production): 30.6% | inhibition at 100 mg/kg (IgM production): 1.2% | inhibition at 10 µM (IL-4 production [1]): 106% | inhibition at 1 µM (IL-4 production [1]): 98.1% | inhibition at 0.1 µM (IL-4 production [1]): 95.1% | inhibition at 0.01 µM (IL-4 production [1]): 83.8% | inhibition at 1 µM (IL-5 production): 94.8% | inhibition at 100 mg/kg (IgG2a production): 0.9% | inhibition at 100 mg/kg (IgG1 production): 8%

O=C(/C=C/c1cc(O)c(O)cn1)c1ccccc1 [Ex. 20, 4,5-Dihydroxy-2-(3-oxo-3-phenyl-1-propenyl)pyridine]
inhibition at 100 mg/kg (IgE production): 23.7% | inhibition at 100 mg/kg (IgM production): -6.2% | inhibition at 10 µM (IL-4 production [1]): 97.9% | inhibition at 1 µM (IL-4 production [1]): 96.4% | inhibition at 0.1 µM (IL-4 production [1]): 90.6% | inhibition at 0.01 µM (IL-4 production [1]): 84% | inhibition at 1 µM (IL-5 production): 92.8% | inhibition at 100 mg/kg (IgG2a production): 1.3% | inhibition at 100 mg/kg (IgG1 production): 7.4%

CCOC(=O)CCCOc1cc(/C=C/C(=O)c2ccccc2)ncc1OC [Ex. 44, Ethyl 4-[5-methyoxy-2-(3-oxo-3-phenyl-1-propenyl)-4-pyridyloxy]butanoate]
inhibition at 100 mg/kg (IgE production): 26.7% | inhibition at 100 mg/kg (IgM production): -4.2% | inhibition at 10 µM (IL-4 production [1]): 89.1% | inhibition at 1 µM (IL-4 production [1]): 86.1% | inhibition at 0.1 µM (IL-4 production [1]): 56.2% | inhibition at 0.01 µM (IL-4 production [1]): 46.5% | inhibition at 1 µM (IL-5 production): 90.6% | inhibition at 100 mg/kg (IgG2a production): -2.2% | inhibition at 100 mg/kg (IgG1 production): 8%

CCOC(=O)CCCCCOc1cc(/C=C/C(=O)C2CCCCC2)ncc1OC [Ex. 77, Ethyl 6-[2-(3-cyclohexyl-3-oxo-1-propenyl)-5-methoxy-4-pyridyloxy]hexanoatehydrochloride]
inhibition at 100 mg/kg (IgE production): 55.8% | inhibition at 100 mg/kg (IgM production): 1.2% | effects on the production of IgM (IgM production; in words): No effects were observed | inhibition at 1 µM (IL-5 production): 82% | inhibition at 100 mg/kg (IgG2a production): -3.9% | effects on the production of IgG2a (IgG2a production; in words): No effects were observed | inhibition at 100 mg/kg (IgG1 production): -6.3% | effects on the production of IgG1 (IgG1 production; in words): No effects were observed | inhibition at 10 µM (IL-4 production [2]): 68.6% | inhibition at 1 µM (IL-4 production [2]): 66% | inhibition at 0.1 µM (IL-4 production [2]): 65% | inhibition at 0.01 µM (IL-4 production [2]): 64.5%

CCOC(=O)CCCOc1cc(/C=C/C(=O)c2c(OC)cccc2OC)ncc1OC [Ex. 86, Ethyl 4-[5-methoxy-2-(3-(2,6-dimethoxyphenyl)-3-oxo-1-propenyl)-4-pyridyloxy]butanoate hydrochloride]
inhibition at 100 mg/kg (IgE production): 35.9% | inhibition at 100 mg/kg (IgM production): -2.7% | inhibition at 1 µM (IL-5 production): 71.9% | inhibition at 100 mg/kg (IgG2a production): 6.2% | inhibition at 100 mg/kg (IgG1 production): -1.1% | inhibition at 10 µM (IL-4 production [2]): 94.6% | inhibition at 1 µM (IL-4 production [2]): 80.1% | inhibition at 0.1 µM (IL-4 production [2]): 77.6% | inhibition at 0.01 µM (IL-4 production [2]): 73.6%

CCOC(=O)CCCOc1cc(/C=C/C(=O)c2cc(OC)ccc2OC)ncc1OC [Ex. 87, Ethyl 4-[5-methoxy-2-(3-(2,5-dimethoxyphenyl)-3-oxo-1-propenyl)-4-pyridyloxy]butanoate hydrochloride]
inhibition at 100 mg/kg (IgE production): 30.5% | inhibition at 100 mg/kg (IgM production): -0.1% | inhibition at 1 µM (IL-5 production): 90.2% | inhibition at 100 mg/kg (IgG2a production): -8.1% | inhibition at 100 mg/kg (IgG1 production): -3.4% | inhibition at 10 µM (IL-4 production [2]): 78.3% | inhibition at 1 µM (IL-4 production [2]): 73.4% | inhibition at 0.1 µM (IL-4 production [2]): 72.2% | inhibition at 0.01 µM (IL-4 production [2]): 69.3%

CCOC(=O)CCCCCOc1cc(/C=C/C(=O)c2cc(OC)ccc2OC)ncc1OC [Ex. 88, Ethyl 6-[5-methoxy-2-(3-(2,5-dimethoxyphenyl)-3-oxo-1-propenyl)-4-pyridyloxy]hexanoate hydrochloride]
inhibition at 100 mg/kg (IgE production): 22.7% | inhibition at 100 mg/kg (IgM production): -4.2% | inhibition at 1 µM (IL-5 production): 61.6% | inhibition at 100 mg/kg (IgG2a production): 8.6% | inhibition at 100 mg/kg (IgG1 production): -6.9% | inhibition at 10 µM (IL-4 production [2]): 74.2% | inhibition at 1 µM (IL-4 production [2]): 74.4% | inhibition at 0.1 µM (IL-4 production [2]): 71.7% | inhibition at 0.01 µM (IL-4 production [2]): 68%

CCOC(=O)CCCCCOc1cc(/C=C/C(=O)c2ccc(OC)c(OC)c2)ncc1OC [Ex. 90, Ethyl 6-[5-methoxy-2-(3-(3,4-dimethoxyphenyl)-3-oxo-1-propenyl)-4-pyridyloxy]hexanoate hydrochloride]
inhibition at 100 mg/kg (IgE production): 21.5% | inhibition at 100 mg/kg (IgM production): -10.3% | inhibition at 1 µM (IL-5 production): 75.6% | inhibition at 100 mg/kg (IgG2a production): 7% | inhibition at 100 mg/kg (IgG1 production): 2.7% | inhibition at 10 µM (IL-4 production [2]): 25.3% | inhibition at 1 µM (IL-4 production [2]): 26.4% | inhibition at 0.1 µM (IL-4 production [2]): 28.6% | inhibition at 0.01 µM (IL-4 production [2]): 43.2%

CCOC(=O)CCCCCCCCCCCOc1cc(/C=C/C(=O)c2ccccc2OC)ncc1OC [Ex. 97, Ethyl 12-[5-methoxy-2-(3-(2-methoxyphenyl)-3-oxo-1-propenyl)-4-pyridyloxy]dodecanoate hydrochloride]
inhibition at 100 mg/kg (IgE production): 30.5% | inhibition at 100 mg/kg (IgM production): 1.9% | inhibition at 1 µM (IL-5 production): 93.9% | inhibition at 100 mg/kg (IgG2a production): -9.5% | inhibition at 100 mg/kg (IgG1 production): 5.6%

COC(=O)c1ccc(COc2cc(/C=C/C(=O)c3ccccc3OC)ncc2OC)cc1 [Ex. 99]
inhibition at 100 mg/kg (IgE production): 34.8% | inhibition at 100 mg/kg (IgM production): 8.5% | inhibition at 1 µM (IL-5 production): 80.3% | inhibition at 100 mg/kg (IgG2a production): 2.7% | inhibition at 100 mg/kg (IgG1 production): 6.1%

CCOC(=O)CCCCCOc1cc(/C=C/C(=O)c2ccsc2)ncc1OC [Ex. 100, Ethyl 6-[5-methoxy-2-(3-oxo-3-(3-thienyl)-1-propenyl)-4-pyridyloxy]hexanoate hyd rochloride]
inhibition at 100 mg/kg (IgE production): 23.9% | inhibition at 100 mg/kg (IgM production): -9% | inhibition at 1 µM (IL-5 production): 82.6% | inhibition at 100 mg/kg (IgG2a production): -5.1% | inhibition at 100 mg/kg (IgG1 production): -4%
